Legend:
[1] = system: Spontaneously hypertensive rats; test: Antihypertensive activity: systolic blood pressure by tail cuff method; assay type: in vivo; conditions: for b.p. lower/dose: systolic blood pressure, spontaneously hypertensive rats; for active in test 1. (Antihypertensive Activity): result in words, no dose given
Description: Systolic blood pressures were recorded by a modification of the tail cuff method described by I.M. Claxton, M.G. Palfreyman, R.H. Poyser, R.L. Whiting, European Journal of Pharmacology, 37, 179 (1976). A W+W BP recorder, model 8005 was used to display pulses. Prior to all measurements rats were placed in a heated environment (33.5 ± 0.5 °C) before transfer to a restraining cage. Each determination of blood pressure was the mean of at least 5 readings. Spontaneously hypertensive rats (ages 12-18 weeks) with systolic blood pressures >180 mmHg were considered hypertensive.

trachea = test: Bronchodilator activity: relaxation of isolated tracheal spirals, relative to isoprenaline maximum; assay type: cell-based, guinea pigs; conditions: result in words; no value given
Description: Male guinea pigs (300-600g) were stunned by a blow to the head and bled from the carotid artery. The trachea was exposed, dissected free of connective tissue, and transferred to oxygenated Krebs solution at 37 °C. Next, spirals (2 per trachea) were prepared by cutting the whole trachea spirally along its longitudinal axis and then dividing this spiral lengthwise. Each preparation was mounted, using silk thread, in a 10ml organ bath filled with Krebs solution at 37 °C and bubbled with 5% CO₂ with O₂. The resting tension of the preparations was set at 2g and changes in muscle tension were monitored isometrically by means of a UFI (2oz) force and displacement transducer (Ormed Ltd) connected to a Linseis pen recorder. All preparations were allowed to equilibrate for 60 minutes. During this equilibration period the preparations were washed by upward displacement at 15 minute intervals and, if necessary, the resting tension was readjusted to 2g using a mechanical micromanipulator system.
Once a steady resting tension had been obtained, the preparations were dosed simultaneously with the test compound (10⁻⁸-2x10⁻⁵M), and finally a maximum relaxation achieved by addition of 10⁻³M isoprenaline. The fall in tension evoked by the test compound was expressed as a percentage of the total relaxation evoked in the presence of 10⁻³ isoprenaline. […]

CC1(C)Oc2ccc(C#N)cc2[C@@H](Nc2cc(Cl)ncn2)[C@@H]1O (racemic) [El, Trans-6-cyano-4-[(6-chloropyrimidin-4-yl)amino]-3,4-dihydro-2,2-dimethyl-2H-1-benzopyran-3-ol]
b.p. lower/dose ([1]; dose 0.15mgkg⁻¹): 38%/0.15mgkg⁻¹ | b.p. lower/dose ([1]; dose 0.3mgkg⁻¹): 36%/0.3mgkg⁻¹

CC1(C)Oc2ccc(C#N)cc2[C@@H](Nc2cc(N)ncn2)[C@@H]1O (racemic) [Example 3]
active in test 1. (Antihypertensive Activity) [1]: active | active in test 2. (Bronchodilator Activity) (trachea): active

CNc1cc(N[C@@H]2c3cc(C#N)ccc3OC(C)(C)[C@H]2O)ncn1 (racemic) [Example 2]
active in test 1. (Antihypertensive Activity) [1]: active | active in test 2. (Bronchodilator Activity) (trachea): active

Reference: patent EP0431741A2, “Substituted pyrimidineamino compounds” (Beecham Group p.l.c., priority 1989, dated 1991)
